Reference: PubChem BioAssay AID849 (SRMLSC, 2007)
Calls of active or inactive are those of the source. The rule behind the calls is not given here.

Each compound was assayed on Saccharomyces cerevisiae lifespan shortening, growth inhibition (assay: Saccharomyces cerevisiae growth inhibition potency – dose response (AID 849);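 note: yeast growth read as optical density after two days at 30 degrees C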).
Oc1ccc(/C=N/N=C(c2ccccc2)c2ccccc2)c(O)c1O showed an IC50 of 23.7 µM.
In the case of O=C(c1c[nH]c(C(=O)C(Cl)(Cl)Cl)c1)c1ccccc1Cl, the IC50 is reported as > 100 µM (inactive).
For Oc1c(Br)cc(Br)cc1Oc1ccc(Br)cc1Br, the IC50 was > 100 µM (inactive).
Work on O=C1CCN2C=Nc3cccc4ccc1c2c34 yielded an IC50 of 32.9 µM.
Work on CCCCN=C(NNc1ccc(Br)cc1)C(=O)OCC yielded an IC50 of 5.3 µM.
In the case of Nc1c(Cl)ncnc1N/N=C/c1ccccn1, the IC50 is reported as 11.2 µM.
With c1ccc(Cc2nnc3sc(-c4ccco4)nn23)cc1 the IC50 was > 100 µM (inactive).
Cc1ccc(Nc2cc(C)nn2-c2nc(C)cc(=O)[nH]2)cc1 gave an IC50 of 1.18 µM.
With FC(F)Sc1ccc(Nc2ncnc3nc[nH]c23)cc1 the IC50 was > 100 µM (inactive).
S=C1SCN(Cc2ccccn2)CN1Cc1ccco1 was tested, and the IC50 was 21.3 µM.
Work on Cc1ccccc1C(=O)O/N=C/c1c(N2CCOCC2)n(C)c2ccccc12 yielded an IC50 of 49.9 µM.
For CC(C)c1ccc(NC(=S)NCCc2c[nH]c3ccccc23)cc1, the IC50 was > 100 µM (inactive).
For O=[N+]([O-])c1ccccc1-c1cc(-c2cc(Cl)ccc2O)n[nH]1, the IC50 was > 100 µM (inactive).
With O=C(O)CSc1cccc[n+]1[O-] the IC50 was 33.9 µM.
Work on Cc1ccc(CNC(=O)c2ccc(Cn3nc(C)c(Cl)c3C)o2)cc1 yielded an IC50 of 12.4 µM.
Work on CCOC(=O)c1c(/N=C/c2cc([N+](=O)[O-])ccc2O)sc(C)c1C yielded an IC50 of 47.1 µM.
Work on Cc1cc(O)c(/C=N/Nc2ccccc2Cl)c(=O)o1 yielded an IC50 of 29.7 µM.
For Oc1cccc2ccc(Nc3ccccn3)nc12, the IC50 was 14 µM.
With Cc1ccc(CNC(=O)CS(=O)Cc2nc(-c3cccs3)oc2C)cc1 (centres undefined) the IC50 was > 100 µM (inactive).
For CCOc1cccc(-c2nnc3n2N=C(c2cc(OC)ccc2OC)CS3)c1, the IC50 was > 100 µM (inactive).
With Cc1ncc(CC(=O)n2cc(C(=O)c3cc(Cl)ccc3O)cn2)s1 the IC50 was 12 µM.
With Clc1ccc(CCNc2nc3ccccc3s2)cc1 the IC50 was > 100 µM (inactive).
Compound CCSc1nc(N)nc(-c2cccs2)c1C#N has an IC50 of 24.8 µM.
With CC(NC(=O)/C(C#N)=C/c1ccc(Cl)c([N+](=O)[O-])c1)c1ccccc1 (centres undefined) the IC50 was > 100 µM (inactive).
In the case of CCn1c(=O)c(C(=O)Nc2nc3ccccc3[nH]2)c(O)c2ccccc21, the IC50 is reported as > 100 µM (inactive).
For O=c1cnn([C@@H]2O[C@H](CO)[C@@H](O)[C@H]2O)c(=O)[nH]1, the IC50 was 13.7 µM.
For CN(c1ccccc1)c1ccc(/C=C/[N+](=O)[O-])cc1, the IC50 was 49.2 µM.
With N/C(=N\OC(=O)c1ccc(Cl)cc1Cl)c1ccccc1 the IC50 was > 100 µM (inactive).
For COc1ccc(C(=O)NC(=S)NNC(=O)c2cnccn2)cc1, the IC50 was 16.3 µM.
CCCCCCCCCCCCCCCC[n+]1cccc(C(=O)N(CC)CC)c1 gave an IC50 of 3.69 µM.
c1ccc2c(c1)nnn1c3ccccc3nc21 was tested, and the IC50 was > 100 µM (inactive).
Cc1ccc(-c2cc(-c3ccccc3Cl)[nH]n2)c(O)c1 gave an IC50 of 51.1 µM.
Cc1ccc(N/N=C(\C#N)C(N)=S)c(C)c1 was tested, and the IC50 was > 100 µM (inactive).
For Nc1nsc2ccccc12, the IC50 was 24.3 µM.
In the case of Cc1ccc(/C=C/C(=O)c2ccccc(=O)c2O)cc1C, the IC50 is reported as 5.31 µM.
CCC(=O)c1c(O)n(C2CCCCCC2)c(=O)[nH]c1=O gave an IC50 of 23.4 µM.
With CCOC(=O)CSc1nnc(CSc2nc(N)c3c(C)c(C)sc3n2)n1-c1ccccc1 the IC50 was > 100 µM (inactive).
With O=S(=O)(Nc1ccc(-n2cccc2)cc1)c1ccc(Cl)cc1Cl the IC50 was > 100 µM (inactive).
Work on O=C(Nc1cccc(C(F)(F)F)c1)C(Sc1cccc[n+]1[O-])c1ccccc1 (centres undefined) yielded an IC50 of 21.5 µM.
With Cc1nn(-c2ccc(F)cc2)c2sc(C(=O)O)cc12 the IC50 was 30.9 µM.
CCOCCCNC(=O)c1ccc(Br)cc1 was tested, and the IC50 was > 100 µM (inactive).
c1ccc2nc3c(nc2c1)[nH]c1ccccc13 was tested, and the IC50 was 25 µM.
For Cc1ccccc1C(=O)NNC(=S)NC(=O)COc1ccccc1, the IC50 was 46.3 µM.
COc1cccc(CC(=O)Nc2ccc3nc(C)sc3c2)c1 showed an IC50 of 35 µM.
In the case of CC(C)(C)c1cc(C(c2cccnc2)N2CCN(CCO)CC2)cc(C(C)(C)C)c1O (centres undefined), the IC50 is reported as 17.3 µM.
Compound O=S(=O)(NC1CC2CCC1C2)c1ccc(Br)s1 (centres undefined) has an IC50 of 2.07 µM.
With CCCc1ccc(Oc2cn[nH]c2-c2ccc(O)c(C)c2O)cc1 the IC50 was 6.65 µM.
Work on Cc1ccc(N/N=C/c2c(O)cc(C)oc2=O)cc1 yielded an IC50 of 24.3 µM.
For Cc1cccc(Nc2nc(-c3ccccn3)cs2)n1, the IC50 was 20.3 µM.
In the case of COc1ccc(NC(=O)CC2SC(=Nc3ccccc3)NC2=O)c(OC)c1 (centres undefined), the IC50 is reported as > 100 µM (inactive).
Work on Cc1ccccc1NC(=S)c1nc2ccccc2[nH]1 yielded an IC50 of 29.5 µM.
For Cc1cccc(C(=O)Oc2csc(=S)n2C(=O)c2cccc(C)c2)c1, the IC50 was > 100 µM (inactive).
O=C1c2ccccc2NC(c2ccc(-c3cccc(Cl)c3)o2)N1O (centres undefined) showed an IC50 of 35 µM.
Cc1ccc(-c2cc(-c3ccccc3C)[nH]n2)c(O)c1 showed an IC50 of 15.8 µM.
For Oc1cc(-c2ccccc2)c2ccccc2c1, the IC50 was 26 µM.
In the case of CCOc1ccc(/C=C/[N+](=O)[O-])c2ccccc12, the IC50 is reported as > 100 µM (inactive).
For COc1cccc(C(=O)O/N=C(\N)Cc2ccc(Cl)cc2)c1, the IC50 was 4.09 µM.
Work on CC(C)(C)n1nc(-c2ccc(F)cc2)c2c(N)ncnc21 yielded an IC50 of less than 0.098 µM.
In the case of CC/C(C)=N/Nc1cccc([N+](=O)[O-])c1, the IC50 is reported as 7.6 µM.
